Assay in all cases: inhibition of tumour cell growth, NCI panel, 48 h
For test [1], the system named is SF-295.
Test [2] has as its system SR.
Test [3] deals with UO-31.
Test [4] relates to CCRF-CEM.
The test system of test [5] is SK-OV-3.
Test [6] deals with HCT-15.
For test [7], the system named is DU-145.
The test system of test [8] is T47D.
In test [9] the test system is UACC-62.
Test [10] concerns MCF7.
Test [11] relates to HT-29.
Test [12] relates to RPMI-8226.
Test [13] concerns OVCAR-4.
Test [14] deals with SF-539.
Test [15] concerns K562.
In test [16] the test system is HOP-92.
Test [17] has as its system SF-268.
Test [18] has as its system HCC 2998.
Test [19] has as its system SK-MEL-5.

The record followed here is ChEMBL document CHEMBL1201862, “PubChem BioAssay data set” (2004).

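Compound exposure: 48 hours, 5 concentrations, 96-well plates. GI50: concentration for 50% inhibition of growth.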 Calls of active or inactive are those of the source. Cut-off read from the data, not from the text of the source: active = GI50 up to about 1.1 µM and inactive = higher.

With `O=c1oc2ccccc2cc1-c1ccc([N+](=O)[O-])cc1`, the GI50 in [1] was 83.6 µM (inactive); in test [2] it was 57.9 µM (inactive); in test [3] it was > 100 µM (inactive); in [4], > 100 µM (inactive); in test [5], 65.3 µM (inactive); in test [6], above 100 µM. Also, the GI50 is > 100 µM (inactive) in [7]; > 100 µM (inactive) in test [8]; 89.5 µM (inactive) in test [9]; > 100 µM (inactive) in test [10]; > 100 µM (inactive) in [11]; > 100 µM (inactive) in test [12]. Further, the GI50 in test [13] was > 100 µM (inactive); in test [14], 17.9 µM (inactive); in test [15], > 100 µM (inactive); in [16], > 100 µM (inactive); in [17], 24.8 µM (inactive); in test [18], > 100 µM (inactive). Besides, the GI50 in [19] was 53 µM (inactive).

For `CCN(CC)CCNc1ccc2nnn3c4ccc(OC(C)=O)cc4c(=O)c1c23`, the GI50 in [1] is 4.51 µM (inactive); in [2], 0.706 µM (active); in test [3], 1.63 µM (inactive); in [4] it was 0.644 µM (active); in [5], 7.35 µM (inactive); in [6] it was 1.46 µM. Also, the GI50 was 2.39 µM (inactive) in test [7]; 15.8 µM (inactive) in test [8]; 11.4 µM (inactive) in [9]; 2.16 µM (inactive) in test [10]; 1.47 µM (inactive) in test [11]; 1.59 µM (inactive) in test [12]. Further, the GI50 in [13] is 2.36 µM (inactive); in [14], 1.67 µM (inactive); in test [16] it was 3.9 µM (inactive); in test [17], 3.01 µM (inactive); in [18] it was 2.53 µM (inactive); in test [19], 1.88 µM (inactive).

As to `Nc1nc2c(ncn2Cc2ccccc2CO)c(=O)[nH]1`, the GI50 in test [1] was > 100 µM (inactive); in test [2], > 100 µM (inactive); in test [3], > 100 µM (inactive); in [4] it was > 100 µM (inactive); in [5], > 100 µM (inactive); in test [6], above 100 µM. The GI50 in [7], in [8], in [9], in test [10], in test [11] and in test [12] was > 100 µM (inactive) in each case. Moreover, the GI50 in test [13], in test [14], in test [15], in test [16], in test [17] and in test [18] was > 100 µM (inactive) throughout. The GI50 in test [19] is > 100 µM (inactive).

On to `O=C(/C=C/c1ccc(OCc2ccccc2)c(OCc2ccccc2)c1)OCc1ccccc1`, for which the GI50 in test [1] was > 100 µM (inactive); in [2] it was > 100 µM (inactive); in test [3] it was > 100 µM (inactive); in test [5], > 100 µM (inactive); in test [6], above 100 µM; in [7], > 100 µM (inactive). Also, the GI50 in test [8], in test [9], in test [10], in test [11], in test [12] and in [13] was > 100 µM (inactive) throughout. Moreover, the GI50 in test [14], in test [15], in [16], in test [17], in test [18] and in test [19] was > 100 µM (inactive) throughout.

On to `CCOP(=O)(OCC)C(NC(=O)OCC(Cl)(Cl)Cl)n1nnc(C(=O)OC)c1C(=O)OC` (stereo not given), for which the GI50 was > 100 µM (inactive) in [1]; > 100 µM (inactive) in test [2]; > 100 µM (inactive) in test [3]; > 100 µM (inactive) in test [4]; > 100 µM (inactive) in [5]; above 100 µM in test [6]. The GI50 in test [7], in test [8], in test [9], in [10], in [11] and in test [12] was > 100 µM (inactive) in each case. For the same compound, the GI50 in test [13], in test [14], in test [15], in [16], in [17] and in test [18] was > 100 µM (inactive) throughout. Also, in test [19], the GI50 was > 100 µM (inactive).

Consider `N#CC(/N=N/c1ccc(Cl)cc1)c1nc2ccccc2o1` (stereo not given), for which the GI50 in [1] is 27.9 µM (inactive); in test [2] it was 43.7 µM (inactive); in test [3] it was > 100 µM (inactive); in [4], 21.1 µM (inactive); in test [5] it was 32.7 µM (inactive); in test [6] it was above 100 µM. Moreover, the GI50 in test [7] was > 100 µM (inactive); in test [8] it was 7.71 µM (inactive); in [9] it was 20.6 µM (inactive); in test [10], > 100 µM (inactive); in [11], > 100 µM (inactive); in test [12] it was 15.7 µM (inactive). The GI50 in test [13] is 30.2 µM (inactive); in [14] it was 24.6 µM (inactive); in [15], 15.5 µM (inactive); in test [16], 17.7 µM (inactive); in [17], 33.3 µM (inactive); in test [18], 33 µM (inactive). Also, in [19], the GI50 is > 100 µM (inactive).

As to `O=C1C(=O)C(CCCO)(CCCO)CCCCCCCCC1(CCCO)CCCO`, the GI50 in test [1] is > 100 µM (inactive); in test [2] it was 18.6 µM (inactive); in [3], 37.4 µM (inactive); in test [5], > 100 µM (inactive); in test [6], above 100 µM; in [7], 75.7 µM (inactive). Also, the GI50 in test [8] is 87.7 µM (inactive); in test [9], 88.1 µM (inactive); in [10] it was 55.1 µM (inactive); in test [11], 67 µM (inactive); in test [12], < 0.01 µM (active); in test [13] it was > 100 µM (inactive). The GI50 is 80.4 µM (inactive) in test [14]; 23.7 µM (inactive) in [15]; 39.7 µM (inactive) in test [16]; 38.1 µM (inactive) in test [17]; > 100 µM (inactive) in test [18]; 41.1 µM (inactive) in test [19].

Consider `CC1(C)OC[C@@H]([C@@]2(COC(c3ccccc3)(c3ccccc3)c3ccccc3)CC=CC(=O)O2)O1`, for which the GI50 in test [1] is 36.5 µM (inactive); in test [2], 33 µM (inactive); in test [3] it was 32.4 µM (inactive); in test [4], 33.3 µM (inactive); in test [5], 38.8 µM (inactive); in test [6] it was 31.1 µM. The GI50 in test [7] is 56.2 µM (inactive); in [8] it was 48.5 µM (inactive); in test [9], 28 µM (inactive); in [10] it was 21.8 µM (inactive); in test [11], 35 µM (inactive); in test [12], 23.4 µM (inactive). For the same compound, the GI50 in test [13] was 28.2 µM (inactive); in [14], 37.2 µM (inactive); in test [15], 32.8 µM (inactive); in [16], 19.4 µM (inactive); in test [17] it was 45.5 µM (inactive); in [18], 19 µM (inactive).

Consider `N#C/C(=C\c1ccc(F)cc1)c1nc(-c2cc3ccccc3oc2=O)cs1`, for which the GI50 was 14 µM (inactive) in [1]; > 100 µM (inactive) in [2]; 26.9 µM (inactive) in test [3]; > 100 µM (inactive) in [4]; 20.4 µM (inactive) in test [5]; 97.5 µM in test [6]. Moreover, the GI50 is 38.6 µM (inactive) in [7]; 24.2 µM (inactive) in [8]; 15 µM (inactive) in [9]; 37.8 µM (inactive) in [10]; 40.1 µM (inactive) in [11]; 87.9 µM (inactive) in [12]. Moreover, the GI50 in test [13] is 10.4 µM (inactive); in test [14] it was 18 µM (inactive); in test [15], > 100 µM (inactive); in [16], 10.3 µM (inactive); in test [17] it was 16.5 µM (inactive); in test [18], 37.7 µM (inactive). For the same compound, in [19], the GI50 is 15.3 µM (inactive).

On to `NC(Cc1ncccn1)C(=O)O` (stereo not given), for which the GI50 in test [1] was > 100 µM (inactive); in test [2] it was > 100 µM (inactive); in [3], > 100 µM (inactive); in test [4], > 100 µM (inactive); in test [5], > 100 µM (inactive); in test [6], above 100 µM. In addition, the GI50 in [7], in test [8], in test [9], in [10], in test [11] and in [12] was > 100 µM (inactive) in each case. The GI50 in [13], in [14], in test [15], in test [16], in test [17] and in test [18] was > 100 µM (inactive) in each case. Further, the GI50 in test [19] was > 100 µM (inactive).

Turning to `O=C(c1cccs1)N1CCN(C(=O)c2cccs2)C1=S`, the GI50 is 16.4 µM (inactive) in test [1]; 3.43 µM (inactive) in test [2]; 2.33 µM (inactive) in test [3]; 2.69 µM (inactive) in test [4]; 15.6 µM (inactive) in [5]; 3.99 µM in [6]. The GI50 was 2.51 µM (inactive) in test [7]; 4.15 µM (inactive) in test [8]; 5.89 µM (inactive) in test [9]; 3.18 µM (inactive) in test [10]; 6.71 µM (inactive) in test [11]; 1.63 µM (inactive) in [12]. For the same compound, the GI50 in test [13] is 16.9 µM (inactive); in test [14], 1.81 µM (inactive); in [15] it was 3.05 µM (inactive); in test [16], 7.19 µM (inactive); in test [17] it was 5.28 µM (inactive); in [18], 7.96 µM (inactive). In [19], the GI50 was 4.59 µM (inactive).
